Laboratory results as given in ChEMBL document CHEMBL1201862, “PubChem BioAssay data set” (2004).
Values belong to the compound of their own block, whether it stands above or below them. Calls of active or inactive are those of the source.

Key:
CAAX prenyl protease 2 [1] = biological target: T1, CAAX prenyl protease 2 (Homo sapiens, UniProt Q9Y256); test: inhibition of Ras-converting CAAX protease Rce1 – biochemical, yeast membranes, quenched-peptide fluorescence, cherry-pick, dose response (AID 588849)
T1 sequence (Q9Y256 whole entry): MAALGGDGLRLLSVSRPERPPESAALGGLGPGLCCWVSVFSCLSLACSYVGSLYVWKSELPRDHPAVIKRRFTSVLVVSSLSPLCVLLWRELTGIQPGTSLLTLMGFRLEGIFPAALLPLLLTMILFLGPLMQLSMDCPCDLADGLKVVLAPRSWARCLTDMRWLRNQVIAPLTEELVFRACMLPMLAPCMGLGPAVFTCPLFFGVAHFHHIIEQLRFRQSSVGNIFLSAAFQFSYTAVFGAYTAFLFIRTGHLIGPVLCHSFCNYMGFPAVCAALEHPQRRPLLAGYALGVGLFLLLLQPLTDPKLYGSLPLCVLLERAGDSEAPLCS

CAAX prenyl protease 2 [2] = biological target: T2, CAAX prenyl protease 2 (Saccharomyces cerevisiae S288c, UniProt Q03530); type: biochemical
T2 sequence (Q03530 whole entry): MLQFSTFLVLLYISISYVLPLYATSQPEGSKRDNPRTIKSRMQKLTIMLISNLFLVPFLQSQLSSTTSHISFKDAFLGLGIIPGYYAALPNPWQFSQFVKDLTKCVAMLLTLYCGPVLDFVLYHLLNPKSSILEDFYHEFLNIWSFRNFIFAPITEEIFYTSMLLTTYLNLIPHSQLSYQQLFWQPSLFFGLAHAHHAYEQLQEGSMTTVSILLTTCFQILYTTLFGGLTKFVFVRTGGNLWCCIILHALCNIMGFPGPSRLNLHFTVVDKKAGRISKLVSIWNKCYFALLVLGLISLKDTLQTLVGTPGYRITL

[3] = biological target: T3, Histone-lysine N-methyltransferase NSD2 (Homo sapiens, UniProt O96028); type: biochemical
T3 sequence (O96028 whole entry): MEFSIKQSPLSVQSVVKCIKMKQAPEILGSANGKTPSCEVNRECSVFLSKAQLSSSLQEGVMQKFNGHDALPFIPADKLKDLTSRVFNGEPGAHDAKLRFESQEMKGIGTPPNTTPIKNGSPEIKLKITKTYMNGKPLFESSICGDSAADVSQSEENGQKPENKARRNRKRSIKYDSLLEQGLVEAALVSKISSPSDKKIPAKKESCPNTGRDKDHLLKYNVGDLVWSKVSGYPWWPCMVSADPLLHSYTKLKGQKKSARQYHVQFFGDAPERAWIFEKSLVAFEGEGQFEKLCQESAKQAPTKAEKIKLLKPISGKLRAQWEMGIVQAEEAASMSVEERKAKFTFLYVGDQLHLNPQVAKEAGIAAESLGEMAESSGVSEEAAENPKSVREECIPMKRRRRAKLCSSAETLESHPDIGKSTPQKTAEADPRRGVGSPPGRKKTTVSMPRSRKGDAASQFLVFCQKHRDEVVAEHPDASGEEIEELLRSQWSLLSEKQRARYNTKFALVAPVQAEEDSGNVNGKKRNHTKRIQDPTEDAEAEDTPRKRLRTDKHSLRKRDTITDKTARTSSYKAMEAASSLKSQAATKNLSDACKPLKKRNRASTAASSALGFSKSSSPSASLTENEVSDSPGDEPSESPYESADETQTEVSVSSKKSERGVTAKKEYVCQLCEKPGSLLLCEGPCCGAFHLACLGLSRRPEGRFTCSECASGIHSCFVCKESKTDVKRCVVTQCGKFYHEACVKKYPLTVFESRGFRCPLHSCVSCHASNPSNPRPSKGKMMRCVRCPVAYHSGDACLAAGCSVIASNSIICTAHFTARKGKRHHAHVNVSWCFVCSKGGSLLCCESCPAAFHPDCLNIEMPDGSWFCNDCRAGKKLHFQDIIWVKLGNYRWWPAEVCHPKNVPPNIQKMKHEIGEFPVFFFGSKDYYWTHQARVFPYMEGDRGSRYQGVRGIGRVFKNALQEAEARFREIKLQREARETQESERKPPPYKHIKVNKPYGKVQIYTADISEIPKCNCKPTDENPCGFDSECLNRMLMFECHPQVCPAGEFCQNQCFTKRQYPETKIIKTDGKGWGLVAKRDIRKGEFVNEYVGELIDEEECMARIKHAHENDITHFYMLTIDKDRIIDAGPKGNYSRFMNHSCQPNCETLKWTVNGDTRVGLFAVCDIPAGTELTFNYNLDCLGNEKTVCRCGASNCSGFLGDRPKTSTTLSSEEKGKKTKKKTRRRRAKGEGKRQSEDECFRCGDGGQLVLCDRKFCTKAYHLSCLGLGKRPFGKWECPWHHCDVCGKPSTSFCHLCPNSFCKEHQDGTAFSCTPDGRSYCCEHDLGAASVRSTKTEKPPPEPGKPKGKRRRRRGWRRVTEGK

[4] = biological target: T4, DNA repair protein RAD52 homolog (Homo sapiens, UniProt P43351); type: functional, biochemical
T4 sequence (P43351 whole entry): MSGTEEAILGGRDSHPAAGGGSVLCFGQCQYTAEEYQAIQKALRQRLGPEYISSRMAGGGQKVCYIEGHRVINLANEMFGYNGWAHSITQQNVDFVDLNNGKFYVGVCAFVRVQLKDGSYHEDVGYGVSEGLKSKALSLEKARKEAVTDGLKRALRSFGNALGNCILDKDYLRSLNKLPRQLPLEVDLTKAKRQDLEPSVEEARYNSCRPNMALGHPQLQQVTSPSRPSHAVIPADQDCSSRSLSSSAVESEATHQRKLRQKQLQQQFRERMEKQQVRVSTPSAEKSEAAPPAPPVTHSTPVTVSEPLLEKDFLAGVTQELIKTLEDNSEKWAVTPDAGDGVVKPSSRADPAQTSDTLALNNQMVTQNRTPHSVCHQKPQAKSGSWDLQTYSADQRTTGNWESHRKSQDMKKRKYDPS

[5] = biological target: T5, High affinity choline transporter 1 (Homo sapiens, UniProt Q9GZV3); test: human choline transporter blockers, potency – cell-based, 5-point CRC, membrane potential dye, dose response (AID 504840); type: functional
T5 sequence (Q9GZV3 whole entry): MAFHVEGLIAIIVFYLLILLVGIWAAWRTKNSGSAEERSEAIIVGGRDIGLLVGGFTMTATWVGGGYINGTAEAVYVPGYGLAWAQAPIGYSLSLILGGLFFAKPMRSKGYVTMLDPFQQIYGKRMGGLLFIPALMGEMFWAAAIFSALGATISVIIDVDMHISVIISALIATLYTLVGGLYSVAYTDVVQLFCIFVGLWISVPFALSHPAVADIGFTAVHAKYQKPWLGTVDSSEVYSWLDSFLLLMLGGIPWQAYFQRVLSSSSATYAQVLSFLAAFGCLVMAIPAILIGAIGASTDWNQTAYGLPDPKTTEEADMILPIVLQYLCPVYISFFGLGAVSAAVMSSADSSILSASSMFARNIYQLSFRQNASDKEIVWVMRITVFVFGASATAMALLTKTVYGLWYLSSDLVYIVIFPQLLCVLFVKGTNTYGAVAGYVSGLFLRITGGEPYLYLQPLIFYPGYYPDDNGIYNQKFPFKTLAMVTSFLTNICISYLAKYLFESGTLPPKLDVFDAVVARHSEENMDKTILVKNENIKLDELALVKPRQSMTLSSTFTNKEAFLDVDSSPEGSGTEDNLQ

Troponin, cardiac muscle = Troponin, cardiac muscle (Homo sapiens, UniProt P19429+P45379+P63316); test: Fluorescence-based biochemical high throughput dose response assay for activators of the calcium sensitivity of cardiac Regulated Thin Filaments (RTF). [Related pubchem assays (depositor defined):AID493008, AID493018, AID504382, AID504383]; type: protein-complex assay
[6] = biological target: T6, Polyadenylate-binding protein 1 (Homo sapiens, UniProt P11940); test: MLLE binding blockers, Cy5 peptide tracer – biochemical, fluorescence polarization, Cy5-PAM2 peptide, secondary, miRNA deadenylation inhibitor project, dose response (AID 602260); type: functional; conditions: read-out: IC50_Mean
T6 sequence (P11940 whole entry, the tested form may be a part): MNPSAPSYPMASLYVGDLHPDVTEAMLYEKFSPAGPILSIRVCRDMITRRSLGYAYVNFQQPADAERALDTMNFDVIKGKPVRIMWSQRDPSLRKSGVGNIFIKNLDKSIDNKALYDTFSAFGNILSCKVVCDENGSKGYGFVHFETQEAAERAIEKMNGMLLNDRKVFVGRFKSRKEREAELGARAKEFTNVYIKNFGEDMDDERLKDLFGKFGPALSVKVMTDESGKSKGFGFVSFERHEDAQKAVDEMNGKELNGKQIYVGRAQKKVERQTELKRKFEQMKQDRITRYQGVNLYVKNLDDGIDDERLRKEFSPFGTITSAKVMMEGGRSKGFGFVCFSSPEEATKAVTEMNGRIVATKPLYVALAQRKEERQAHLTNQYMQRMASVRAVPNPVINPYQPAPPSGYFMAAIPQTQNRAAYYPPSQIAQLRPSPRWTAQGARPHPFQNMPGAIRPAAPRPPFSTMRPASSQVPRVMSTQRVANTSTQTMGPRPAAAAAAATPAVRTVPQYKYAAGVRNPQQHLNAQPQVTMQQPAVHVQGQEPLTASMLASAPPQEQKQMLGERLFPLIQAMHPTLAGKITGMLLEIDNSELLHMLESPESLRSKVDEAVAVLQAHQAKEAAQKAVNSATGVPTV

[7] = biological target: T6, Polyadenylate-binding protein 1; test: MLLE domain peptide-binding blockers, IC50 – biochemical, fluorescence polarization, FITC-PAM2 peptide, dose response (AID 602259); type: functional; conditions: read-out: IC50_Mean
[8] = biological target: T5, High affinity choline transporter 1; test: human choline transporter blockers, potency – cell-based, 10-point CRC, membrane potential dye, dose response (AID 588401); type: functional;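 also: membrane potential dye fluorescence of choline-evoked depolarization via CHT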
[9] = biological target: T7, Rac GTPase-activating protein 1 (Homo sapiens, UniProt Q9H0H5); test: blockers of MgcRacGAP-driven Rac1 GTP hydrolysis – biochemical, ADP Hunter fluorescence, primary and confirmatory, confirmation (AID 624330); type: functional
T7 sequence (Q9H0H5 whole entry): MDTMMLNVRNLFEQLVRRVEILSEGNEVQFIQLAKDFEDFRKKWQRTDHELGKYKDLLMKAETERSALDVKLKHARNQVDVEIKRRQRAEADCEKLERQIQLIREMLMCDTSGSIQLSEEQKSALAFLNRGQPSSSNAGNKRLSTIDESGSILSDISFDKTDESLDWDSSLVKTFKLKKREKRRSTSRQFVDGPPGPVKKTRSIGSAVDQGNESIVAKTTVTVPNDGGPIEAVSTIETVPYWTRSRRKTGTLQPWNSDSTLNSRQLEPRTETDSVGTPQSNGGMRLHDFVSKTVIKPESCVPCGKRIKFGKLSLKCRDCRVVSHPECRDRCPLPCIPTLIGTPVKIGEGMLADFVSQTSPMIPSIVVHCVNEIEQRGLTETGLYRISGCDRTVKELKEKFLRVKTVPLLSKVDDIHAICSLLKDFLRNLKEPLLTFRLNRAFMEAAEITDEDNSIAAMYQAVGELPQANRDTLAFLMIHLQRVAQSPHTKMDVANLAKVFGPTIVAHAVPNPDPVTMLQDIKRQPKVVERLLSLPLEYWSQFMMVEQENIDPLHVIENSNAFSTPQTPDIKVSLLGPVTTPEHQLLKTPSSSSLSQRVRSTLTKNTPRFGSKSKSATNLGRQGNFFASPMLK

[10] = biological target: Heat shock protein HSP 90-alpha (Homo sapiens, UniProt P07900); type: functional, organism-based
[11] = biological target: Melanin-concentrating hormone receptor 1 (Homo sapiens, UniProt Q99705); test: Late-stage fluorescence-based counterscreen for antagonists of the G-protein coupled receptor 7 (GPR7): cell-based dose response assay to identify antagonists of the melanin-concentrating hormone receptor 1 (MCHR1) Set 5.; type: functional
Melanin-concentrating hormone receptor 1, sequence (Q99705 whole entry): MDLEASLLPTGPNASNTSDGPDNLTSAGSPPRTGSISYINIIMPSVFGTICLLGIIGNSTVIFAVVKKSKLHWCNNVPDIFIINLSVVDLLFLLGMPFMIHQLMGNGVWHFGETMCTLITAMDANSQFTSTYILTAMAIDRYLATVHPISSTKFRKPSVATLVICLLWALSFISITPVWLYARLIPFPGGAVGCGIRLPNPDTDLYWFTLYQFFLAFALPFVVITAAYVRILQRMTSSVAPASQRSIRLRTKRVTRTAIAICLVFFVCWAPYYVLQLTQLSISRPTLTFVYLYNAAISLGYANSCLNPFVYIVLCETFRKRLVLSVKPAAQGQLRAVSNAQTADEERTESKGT

[12] = biological target: T8, Apoptotic protease-activating factor 1 (Homo sapiens, UniProt O14727); test: SAR analysis of small molecule Activators of Apaf-1 in a Fluorescent assay.; type: functional; conditions: read-out: EC50_Mean;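 also: caspase-3 cleavage of fluorogenic Rh110 DEVD substrate downstream of apoptosome activation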
T8 sequence (O14727 whole entry): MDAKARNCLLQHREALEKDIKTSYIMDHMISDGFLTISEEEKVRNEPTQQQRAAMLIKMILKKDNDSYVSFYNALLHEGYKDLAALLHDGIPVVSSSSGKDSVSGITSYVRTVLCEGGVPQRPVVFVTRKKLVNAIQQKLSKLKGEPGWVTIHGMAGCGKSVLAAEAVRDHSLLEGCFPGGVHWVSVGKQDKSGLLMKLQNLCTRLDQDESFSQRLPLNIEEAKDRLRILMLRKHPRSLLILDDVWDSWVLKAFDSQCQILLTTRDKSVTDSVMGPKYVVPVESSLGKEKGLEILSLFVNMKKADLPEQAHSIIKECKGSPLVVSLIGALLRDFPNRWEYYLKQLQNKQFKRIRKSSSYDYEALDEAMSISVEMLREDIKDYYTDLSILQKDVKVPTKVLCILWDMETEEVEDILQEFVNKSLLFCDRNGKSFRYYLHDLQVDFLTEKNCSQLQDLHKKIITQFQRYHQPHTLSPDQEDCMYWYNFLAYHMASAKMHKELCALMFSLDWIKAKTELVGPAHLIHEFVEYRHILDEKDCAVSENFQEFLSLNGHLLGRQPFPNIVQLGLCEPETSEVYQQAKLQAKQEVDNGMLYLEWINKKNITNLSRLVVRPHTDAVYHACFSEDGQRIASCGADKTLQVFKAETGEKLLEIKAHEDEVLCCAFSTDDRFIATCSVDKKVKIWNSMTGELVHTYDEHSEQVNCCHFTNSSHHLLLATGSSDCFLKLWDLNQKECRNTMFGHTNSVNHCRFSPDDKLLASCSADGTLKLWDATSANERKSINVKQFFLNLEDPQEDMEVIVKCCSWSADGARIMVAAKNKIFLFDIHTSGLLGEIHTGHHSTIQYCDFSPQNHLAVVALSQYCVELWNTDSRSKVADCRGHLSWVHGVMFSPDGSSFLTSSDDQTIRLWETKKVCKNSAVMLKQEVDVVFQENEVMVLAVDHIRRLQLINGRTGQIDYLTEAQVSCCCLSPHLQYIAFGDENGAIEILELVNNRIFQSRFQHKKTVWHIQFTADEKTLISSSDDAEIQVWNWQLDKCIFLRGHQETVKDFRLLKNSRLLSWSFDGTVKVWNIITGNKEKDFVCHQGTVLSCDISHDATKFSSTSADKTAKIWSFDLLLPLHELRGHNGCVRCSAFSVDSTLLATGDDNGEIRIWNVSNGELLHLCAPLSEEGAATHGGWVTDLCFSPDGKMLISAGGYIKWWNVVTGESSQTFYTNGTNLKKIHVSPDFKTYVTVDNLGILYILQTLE

AC50 (CAAX prenyl protease 2 [1]): 10.5 µM (active)
AC50 (CAAX prenyl protease 2 [2]): 16.4 µM (active)
AC50 [3]: 9.07 µM (active)
AC50 [4]: 5.22 µM (active)
SMILES: CCN(CC)CCCN(Cc1cc2cc3c(cc2[nH]c1=O)OCO3)C(=S)NCCCN(C)C

IC50 [5]: 4.79 µM (active)
EC50 (Troponin, cardiac muscle): > 71.5 µM (inactive)
IC50 [6]: > 66 µM (inactive)
IC50 [7]: > 66 µM (inactive)
IC50 [8]: 3.55 µM (active)
SMILES: CN1c2ccccc2C(O)=C(C(S)=Nc2ccc(F)c(Cl)c2)S1(=O)=O

IC50 [5]: 10.5 µM (active)
IC50 [8]: 11.2 µM (active)
SMILES: CCC(Oc1ccccc1)C(=O)Nc1ccc(S(=O)(=O)NCC2CCCO2)cc1 (centres undefined)

IC50 [5]: 6.92 µM (active)
IC50 [8]: 3.36 µM (active)
SMILES: O=C(NCC(c1ccco1)N1CCCCC1)c1cccc(NS(=O)(=O)c2ccc(Br)cc2)c1 (centres undefined)

IC50 [9]: 76 µM (active)
AC50 [10]: 2.2 µM (active)
SMILES: O=[S@]1Oc2ccccc2-c2ccccc21

IC50 [11]: 3.22 µM (active)
SMILES: COc1cc(Oc2c(Cl)cnn(Cc3cccc4ccccc34)c2=O)cc(OC)c1OC

EC50 [12]: > 100 µM (inactive)
SMILES: O=C1CC2(CC(c3ccc(F)cc3)=NO2)C(=O)N1c1cccc(Cl)c1 (centres undefined)

IC50 [11]: 0.707 µM (active)
SMILES: COc1ccc(Oc2c(Cl)cnn(-c3nc4ccccc4c(=O)c4ccccc34)c2=O)cc1

EC50 [12]: > 100 µM (inactive)
SMILES: COc1cc(Cl)c(C)cc1NC(=O)CCS(=O)(=O)c1ccc(Cl)cc1
